Assay results as given in ChEMBL document CHEMBL5291721, “A preclinical secondary pharmacology resource illuminates target-adverse drug reaction associations of marketed drugs” (Nat Commun, 2023).

Assays:
[1] = biological target: Vascular endothelial growth factor receptor 2 (Homo sapiens, UniProt P35968); type: functional
[2] = biological target: Gamma-aminobutyric acid receptor subunit alpha-1/alpha-2/beta-2/gamma-2 (Homo sapiens, UniProt P14867+P18507+P47869+P47870); type: protein-complex assay
[3] = biological target: T1, 5-hydroxytryptamine receptor 3A (Homo sapiens, UniProt P46098); type: functional
T1 sequence (P46098 whole entry): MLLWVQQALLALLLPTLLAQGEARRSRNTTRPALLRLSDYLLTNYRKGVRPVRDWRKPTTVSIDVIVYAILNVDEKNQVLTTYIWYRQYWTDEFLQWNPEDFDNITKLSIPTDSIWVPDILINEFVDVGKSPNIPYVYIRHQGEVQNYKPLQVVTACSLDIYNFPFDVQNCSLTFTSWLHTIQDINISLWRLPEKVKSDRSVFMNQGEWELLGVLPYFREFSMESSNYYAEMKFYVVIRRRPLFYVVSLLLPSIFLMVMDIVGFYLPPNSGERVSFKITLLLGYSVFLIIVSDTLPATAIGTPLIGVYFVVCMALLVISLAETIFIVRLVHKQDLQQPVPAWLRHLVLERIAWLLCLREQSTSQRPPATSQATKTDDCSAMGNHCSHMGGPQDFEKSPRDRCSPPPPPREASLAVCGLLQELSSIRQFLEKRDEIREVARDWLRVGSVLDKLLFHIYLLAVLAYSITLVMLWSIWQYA

[4] = biological target: 5-hydroxytryptamine receptor 2B (Homo sapiens, UniProt P41595); type: functional, cell-based
[5] = biological target: T2, 5-hydroxytryptamine receptor 2C (Homo sapiens, UniProt P28335)
T2 sequence (P28335 whole entry): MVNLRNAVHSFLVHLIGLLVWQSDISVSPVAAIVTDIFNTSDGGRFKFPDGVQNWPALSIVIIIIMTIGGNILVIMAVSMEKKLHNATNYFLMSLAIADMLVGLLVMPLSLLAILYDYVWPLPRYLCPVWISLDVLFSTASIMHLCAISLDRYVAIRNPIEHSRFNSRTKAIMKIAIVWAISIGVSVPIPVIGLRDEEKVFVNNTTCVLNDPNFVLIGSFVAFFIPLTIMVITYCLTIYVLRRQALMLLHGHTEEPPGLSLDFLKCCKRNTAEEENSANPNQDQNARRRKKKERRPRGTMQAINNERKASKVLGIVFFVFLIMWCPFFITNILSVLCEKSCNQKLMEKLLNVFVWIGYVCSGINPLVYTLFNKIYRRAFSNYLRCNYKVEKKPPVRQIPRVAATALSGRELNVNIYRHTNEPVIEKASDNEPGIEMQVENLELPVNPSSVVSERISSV

Histamine H1 receptor = Histamine H1 receptor (Homo sapiens, UniProt P35367)
Adenosine receptor A2a = Adenosine receptor A2a (Homo sapiens, UniProt P29274)
Cannabinoid receptor 1 [6] = biological target: T3, Cannabinoid receptor 1 (Homo sapiens, UniProt P21554); type: functional, cell-based
Adenosine receptor A3 = biological target: T4, Adenosine receptor A3 (Homo sapiens, UniProt P0DMS8)
T4 sequence (P0DMS8 whole entry): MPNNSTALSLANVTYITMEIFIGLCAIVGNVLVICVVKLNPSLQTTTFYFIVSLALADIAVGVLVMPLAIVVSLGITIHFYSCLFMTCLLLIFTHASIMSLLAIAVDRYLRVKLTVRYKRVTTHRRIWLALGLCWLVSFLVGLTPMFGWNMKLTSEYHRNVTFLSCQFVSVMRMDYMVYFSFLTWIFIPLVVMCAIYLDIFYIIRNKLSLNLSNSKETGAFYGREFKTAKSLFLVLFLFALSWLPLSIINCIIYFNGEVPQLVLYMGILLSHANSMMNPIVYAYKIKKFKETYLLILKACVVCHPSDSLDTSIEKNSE

Cannabinoid receptor 1 [7] = biological target: T3, Cannabinoid receptor 1; type: functional, cell-based; remark: listed apart in the source
[8] = biological target: T5, Alpha-2C adrenergic receptor (Homo sapiens, UniProt P18825); type: functional
T5 sequence (P18825 whole entry): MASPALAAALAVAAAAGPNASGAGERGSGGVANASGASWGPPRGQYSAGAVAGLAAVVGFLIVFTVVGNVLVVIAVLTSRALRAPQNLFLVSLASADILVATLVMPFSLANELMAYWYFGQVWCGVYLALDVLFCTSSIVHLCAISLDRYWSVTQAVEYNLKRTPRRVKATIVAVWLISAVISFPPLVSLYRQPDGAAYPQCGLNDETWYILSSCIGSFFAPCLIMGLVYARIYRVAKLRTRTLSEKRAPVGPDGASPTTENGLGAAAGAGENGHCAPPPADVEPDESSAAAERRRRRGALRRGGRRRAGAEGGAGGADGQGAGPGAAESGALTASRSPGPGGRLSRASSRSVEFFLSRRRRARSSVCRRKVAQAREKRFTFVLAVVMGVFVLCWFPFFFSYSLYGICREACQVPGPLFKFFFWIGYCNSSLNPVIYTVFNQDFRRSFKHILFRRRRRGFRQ

[9] = biological target: T6, Muscarinic acetylcholine receptor M1 (Homo sapiens, UniProt P11229); type: functional
T6 sequence (P11229 whole entry): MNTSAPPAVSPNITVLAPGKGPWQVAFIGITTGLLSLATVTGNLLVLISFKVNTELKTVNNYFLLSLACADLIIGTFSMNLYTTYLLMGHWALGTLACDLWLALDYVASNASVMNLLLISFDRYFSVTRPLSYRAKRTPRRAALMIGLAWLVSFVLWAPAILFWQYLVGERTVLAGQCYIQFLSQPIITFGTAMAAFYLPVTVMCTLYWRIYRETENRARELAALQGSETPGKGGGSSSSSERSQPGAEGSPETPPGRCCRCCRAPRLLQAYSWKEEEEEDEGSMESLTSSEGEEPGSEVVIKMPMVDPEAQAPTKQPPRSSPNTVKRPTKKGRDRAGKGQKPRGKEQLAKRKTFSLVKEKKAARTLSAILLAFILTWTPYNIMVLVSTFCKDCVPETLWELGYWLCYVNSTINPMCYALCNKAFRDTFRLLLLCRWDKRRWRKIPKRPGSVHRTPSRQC

[10] = biological target: Gamma-aminobutyric acid receptor subunit alpha-1 (Rattus norvegicus, UniProt P62813); type: functional
Also: assay procedure not described here.

T3 sequence (P21554 whole entry): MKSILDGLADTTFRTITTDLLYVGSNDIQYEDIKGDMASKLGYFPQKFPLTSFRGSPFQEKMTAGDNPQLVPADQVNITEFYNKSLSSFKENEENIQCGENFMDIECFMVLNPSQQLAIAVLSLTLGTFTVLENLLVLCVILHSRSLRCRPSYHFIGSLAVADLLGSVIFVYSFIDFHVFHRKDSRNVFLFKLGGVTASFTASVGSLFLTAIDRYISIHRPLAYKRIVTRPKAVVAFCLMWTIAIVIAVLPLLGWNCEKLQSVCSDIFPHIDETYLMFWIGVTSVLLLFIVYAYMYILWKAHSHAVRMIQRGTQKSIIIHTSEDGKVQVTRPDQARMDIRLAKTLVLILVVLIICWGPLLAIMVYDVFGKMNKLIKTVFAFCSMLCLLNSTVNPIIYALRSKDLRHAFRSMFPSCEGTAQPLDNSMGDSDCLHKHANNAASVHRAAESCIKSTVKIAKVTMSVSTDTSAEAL
Chain of 5-hydroxytryptamine receptor 2B (P41595 whole entry): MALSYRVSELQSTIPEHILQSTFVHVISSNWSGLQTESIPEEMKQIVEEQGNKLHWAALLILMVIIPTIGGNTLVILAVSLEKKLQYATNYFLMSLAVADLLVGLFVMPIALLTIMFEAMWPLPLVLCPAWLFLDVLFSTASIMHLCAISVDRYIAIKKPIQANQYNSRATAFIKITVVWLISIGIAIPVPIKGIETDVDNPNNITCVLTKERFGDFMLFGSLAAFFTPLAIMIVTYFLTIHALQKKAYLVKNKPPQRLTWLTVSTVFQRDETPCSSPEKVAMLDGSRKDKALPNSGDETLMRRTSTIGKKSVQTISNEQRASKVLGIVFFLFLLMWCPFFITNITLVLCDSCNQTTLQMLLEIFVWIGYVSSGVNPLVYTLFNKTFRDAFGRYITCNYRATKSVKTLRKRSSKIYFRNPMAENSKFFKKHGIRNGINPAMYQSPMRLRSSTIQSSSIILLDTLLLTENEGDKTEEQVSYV
Chain of Adenosine receptor A2a (P29274 whole entry): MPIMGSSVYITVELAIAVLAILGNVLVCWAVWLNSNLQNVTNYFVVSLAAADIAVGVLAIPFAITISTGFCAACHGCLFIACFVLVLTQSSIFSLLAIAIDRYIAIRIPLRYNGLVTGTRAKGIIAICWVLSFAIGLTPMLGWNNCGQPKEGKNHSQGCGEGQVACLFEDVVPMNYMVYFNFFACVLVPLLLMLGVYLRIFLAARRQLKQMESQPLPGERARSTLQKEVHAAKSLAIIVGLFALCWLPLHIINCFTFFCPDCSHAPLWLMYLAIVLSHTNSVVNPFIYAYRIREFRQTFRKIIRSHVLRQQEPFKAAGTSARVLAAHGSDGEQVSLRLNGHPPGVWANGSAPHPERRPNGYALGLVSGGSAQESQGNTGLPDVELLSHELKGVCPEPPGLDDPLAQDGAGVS
Chain of Vascular endothelial growth factor receptor 2 (P35968 whole entry): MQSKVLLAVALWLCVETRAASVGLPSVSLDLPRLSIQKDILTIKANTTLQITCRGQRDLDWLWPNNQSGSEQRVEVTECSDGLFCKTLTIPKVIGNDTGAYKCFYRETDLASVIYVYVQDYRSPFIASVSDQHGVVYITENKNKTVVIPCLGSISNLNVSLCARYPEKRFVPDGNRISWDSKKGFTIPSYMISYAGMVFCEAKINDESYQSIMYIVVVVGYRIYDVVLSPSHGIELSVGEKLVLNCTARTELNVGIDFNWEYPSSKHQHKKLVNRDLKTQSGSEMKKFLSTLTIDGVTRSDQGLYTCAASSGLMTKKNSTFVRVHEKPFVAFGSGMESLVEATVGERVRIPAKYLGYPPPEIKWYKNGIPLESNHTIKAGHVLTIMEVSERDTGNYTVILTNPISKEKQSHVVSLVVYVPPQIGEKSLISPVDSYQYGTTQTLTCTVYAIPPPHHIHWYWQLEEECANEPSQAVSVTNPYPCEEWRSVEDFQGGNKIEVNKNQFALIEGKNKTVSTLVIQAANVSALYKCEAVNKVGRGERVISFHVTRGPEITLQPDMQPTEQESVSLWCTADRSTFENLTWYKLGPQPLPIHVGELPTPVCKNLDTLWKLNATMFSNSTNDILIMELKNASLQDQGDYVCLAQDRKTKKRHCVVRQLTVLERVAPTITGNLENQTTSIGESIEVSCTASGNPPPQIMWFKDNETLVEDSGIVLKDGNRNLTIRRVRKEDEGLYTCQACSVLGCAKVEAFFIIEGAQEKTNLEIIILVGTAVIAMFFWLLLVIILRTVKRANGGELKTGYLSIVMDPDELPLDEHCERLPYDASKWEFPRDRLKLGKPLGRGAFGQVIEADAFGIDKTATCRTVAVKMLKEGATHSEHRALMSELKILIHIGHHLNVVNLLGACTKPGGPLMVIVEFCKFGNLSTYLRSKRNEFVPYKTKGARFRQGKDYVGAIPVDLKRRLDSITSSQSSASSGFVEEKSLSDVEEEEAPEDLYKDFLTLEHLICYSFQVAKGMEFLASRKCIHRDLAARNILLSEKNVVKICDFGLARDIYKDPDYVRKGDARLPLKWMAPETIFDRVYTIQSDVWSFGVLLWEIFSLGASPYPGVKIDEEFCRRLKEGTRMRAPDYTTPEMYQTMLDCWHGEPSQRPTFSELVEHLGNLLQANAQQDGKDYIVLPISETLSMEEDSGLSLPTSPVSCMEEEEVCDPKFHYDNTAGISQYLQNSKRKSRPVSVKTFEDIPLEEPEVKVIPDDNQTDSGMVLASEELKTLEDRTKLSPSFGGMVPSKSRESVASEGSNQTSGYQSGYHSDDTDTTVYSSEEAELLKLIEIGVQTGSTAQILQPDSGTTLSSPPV
Chain of Gamma-aminobutyric acid receptor subunit alpha-1 (P62813 whole entry): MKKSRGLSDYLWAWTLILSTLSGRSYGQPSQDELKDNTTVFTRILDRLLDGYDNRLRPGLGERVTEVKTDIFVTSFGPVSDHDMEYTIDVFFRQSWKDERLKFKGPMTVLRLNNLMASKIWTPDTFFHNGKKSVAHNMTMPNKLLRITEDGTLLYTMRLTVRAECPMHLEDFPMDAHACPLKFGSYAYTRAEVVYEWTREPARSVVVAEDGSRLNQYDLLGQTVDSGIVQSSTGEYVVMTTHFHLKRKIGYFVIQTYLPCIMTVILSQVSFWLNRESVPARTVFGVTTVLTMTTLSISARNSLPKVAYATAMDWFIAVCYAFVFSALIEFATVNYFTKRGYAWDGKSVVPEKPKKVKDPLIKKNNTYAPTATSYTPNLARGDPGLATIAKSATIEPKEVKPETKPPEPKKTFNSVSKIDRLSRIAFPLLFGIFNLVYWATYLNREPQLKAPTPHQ
Chain of Histamine H1 receptor (P35367 whole entry): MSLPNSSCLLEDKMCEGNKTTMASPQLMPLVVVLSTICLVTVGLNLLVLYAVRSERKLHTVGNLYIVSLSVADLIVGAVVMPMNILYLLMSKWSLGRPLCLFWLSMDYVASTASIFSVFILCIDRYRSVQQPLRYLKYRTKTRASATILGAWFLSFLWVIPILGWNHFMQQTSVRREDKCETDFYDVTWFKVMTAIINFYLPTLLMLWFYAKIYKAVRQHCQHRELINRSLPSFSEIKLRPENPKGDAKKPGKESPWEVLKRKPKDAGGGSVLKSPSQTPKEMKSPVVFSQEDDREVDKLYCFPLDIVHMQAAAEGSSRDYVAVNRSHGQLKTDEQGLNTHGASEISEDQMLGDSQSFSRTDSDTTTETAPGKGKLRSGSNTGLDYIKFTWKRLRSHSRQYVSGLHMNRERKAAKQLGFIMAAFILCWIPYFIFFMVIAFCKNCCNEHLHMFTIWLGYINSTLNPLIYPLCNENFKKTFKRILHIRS

Compound	AC50 [1] [µM]	AC50 [2] [µM]	AC50 [3] [µM]	AC50 [4] [µM]	AC50 [5] [µM]	AC50 (Histamine H1 receptor) [µM]	AC50 (Adenosine receptor A2a) [µM]	AC50 (Cannabinoid receptor 1 [6]) [µM]	AC50 (Adenosine receptor A3) [µM]	AC50 (Cannabinoid receptor 1 [7]) [µM]	AC50 [8] [µM]	AC50 [9] [µM]	AC50 [10] [µM]
O=C(NC1CCN(CCCCC2(C(=O)NCC(F)(F)F)c3ccccc3-c3ccccc32)CC1)c1ccccc1-c1ccc(C(F)(F)F)cc1 [LOMITAPIDE]	> 30												
CCOc1ccc(/C=C2\NCCc3cc(OCC)c(OCC)cc32)cc1OCC [DROTAVERINE]	> 30	> 30											
C[C@@H]1C[C@H]2[C@@H]3C[C@H](F)C4=CC(=O)C(Cl)=C[C@]4(C)[C@@]3(F)[C@@H](O)C[C@]2(C)[C@@]1(O)C(=O)CO [HALOMETASONE]	> 30												
Nc1ccc(C(=O)O)cc1 [AMINOBENZOIC ACID]	> 30												
CN1CCN(C(c2ccccc2)c2ccccc2)CC1 [CYCLIZINE]	> 30	> 30											
CCCCN(CCCC)CCCOC(=O)c1ccc(N)cc1 [BUTACAINE]	> 30												
O=C1CN=C(c2ccccc2)c2c(sc3c2CCCC3)N1 [BENTAZEPAM]	> 30												
CCC1C(C)=NN=C(c2ccc(OC)c(OC)c2)c2cc(OC)c(OC)cc21 (centres undefined) [TOFISOPAM]	> 30												
CC(C(O)c1ccc(O)cc1)N1CCC(Cc2ccccc2)CC1 (centres undefined) [IFENPRODIL]			> 30	2.3	> 30	1	> 30	> 30	> 30	> 30	0.89	> 30	> 30
CCOC(=O)C(c1c(O)c2ccccc2oc1=O)c1c(O)c2ccccc2oc1=O [ETHYL BISCOUMACETATE]	> 30												
CC(C)(N)Cc1ccc(Cl)cc1 [CHLORPHENTERMINE]			> 30	25	> 30	14	> 30	> 30	> 30	> 30	> 10	> 10	> 10
NS(=O)(=O)c1cc(-c2nnn[nH]2)c(NCc2cccs2)cc1Cl [AZOSEMIDE]			> 30	> 30	> 30	> 30	> 30	> 30	> 30	> 30	> 30	> 30	> 30
O=C(Cn1ccnc1[N+](=O)[O-])NCc1ccccc1 [BENZNIDAZOLE]			> 30	> 30	> 30	> 30	> 30	> 30	> 30	> 30	> 30	> 30	> 30
O=C1CCC(N2C(=O)c3ccccc3C2=O)C(=O)N1 (centres undefined) [THALIDOMIDE]	> 30		> 30	> 10	> 30		> 30	> 30	> 30	> 30	> 10		> 10
C[N+](C)(C)CC(=O)O [BETAINE]			> 30	> 30	> 30	> 30	> 30	> 30	> 30	> 30	> 30	> 30	> 30
CCCC(=O)N1CCCN(c2nc(N)c3cc(OC)c(OC)cc3n2)CC1 [BUNAZOSIN]			> 30	> 30	> 30	> 30	> 30	> 30	> 30	> 30	0.55	> 30	> 30
Cc1nc(-c2ccc(OCC(C)C)c(C#N)c2)sc1C(=O)O [FEBUXOSTAT]	> 30												
CC(C)NCC1CCc2cc(CO)c([N+](=O)[O-])cc2N1 (centres undefined) [OXAMNIQUINE]			> 30	26	> 30	> 10	> 10	> 30	> 10	> 30	> 10	> 10	> 10
